Measured values taken from US8071768B2, “Alkylquinoline and alkylquinazoline kinase modulators” (Janssen Pharmaceutica, N.V., priority 2005, dated 2011).

target: T1, TrkB (Homo sapiens, UniProt Q16620); experiment: Trk B Fluorescence Polarization Kinase Assay; type: biochemical; conditions: uncertainty ±10%
T1 construct: purchased Upstate 14-507M
In short: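 The TrkB kinase reaction (50 nM enzyme, 20 ug/mL poly Glu4Tyr, 150 uM ATP, 5 mM MgCl2, 1% DMSO) ran 30 minutes at room temperature and was stopped with EDTA. Phosphorylation was detected by fluorescence-polarization displacement of a fluorescein phosphopeptide from an anti-phosphotyrosine antibody. IC50 came from a variable-slope sigmoidal fit of triplicates.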

T1 sequence (Q16620 32-822): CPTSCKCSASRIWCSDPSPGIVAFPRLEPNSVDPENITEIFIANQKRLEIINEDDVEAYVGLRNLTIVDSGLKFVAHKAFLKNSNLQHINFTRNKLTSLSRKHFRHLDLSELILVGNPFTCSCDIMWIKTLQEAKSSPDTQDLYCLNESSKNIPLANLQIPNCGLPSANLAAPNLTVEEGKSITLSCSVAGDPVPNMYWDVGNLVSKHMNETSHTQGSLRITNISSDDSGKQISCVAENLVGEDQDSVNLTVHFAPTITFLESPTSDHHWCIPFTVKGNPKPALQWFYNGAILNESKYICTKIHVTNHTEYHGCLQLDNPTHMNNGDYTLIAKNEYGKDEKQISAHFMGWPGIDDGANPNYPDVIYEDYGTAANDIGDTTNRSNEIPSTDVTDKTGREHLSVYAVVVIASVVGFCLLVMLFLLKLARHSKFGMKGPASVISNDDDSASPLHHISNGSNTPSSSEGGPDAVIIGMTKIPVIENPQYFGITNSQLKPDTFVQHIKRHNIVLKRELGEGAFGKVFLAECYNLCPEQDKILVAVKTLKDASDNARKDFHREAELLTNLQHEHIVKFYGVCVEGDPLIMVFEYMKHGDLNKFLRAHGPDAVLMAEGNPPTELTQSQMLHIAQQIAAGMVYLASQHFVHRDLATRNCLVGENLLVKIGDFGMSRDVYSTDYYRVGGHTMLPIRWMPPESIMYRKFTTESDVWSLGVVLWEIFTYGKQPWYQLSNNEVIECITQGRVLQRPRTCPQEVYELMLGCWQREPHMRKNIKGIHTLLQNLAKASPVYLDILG

Row | IC50 [µM] | SMILES
1 | 5.31 | CC(C)Oc1ccc(NC(=O)N2CCC(c3ncnc4ccc(N5CCN(C)CC5)cc34)CC2)cc1 [Compound 131, 4-[6-(4-Methyl-piperazin-1-yl)-quinazolin-4-yl]-piperidine-1-carboxylic acid (4-isopropoxy-phenyl)-amide]
2 | 0.3 | CC(C)Oc1ccc(NC(=O)N2CCC(c3ncnc4ccc(OCCCN5CCCC5=O)cc34)CC2)cc1 [Compound 101, 4-{6-[3-(2-Oxo-pyrrolidin-1-yl)-propoxy]-quinazolin-4-yl}-piperidine-1-carboxylic acid (4-isopropoxy-phenyl)-amide]
3 | > 20 | O=C1CCCN1CCOc1ccc2c(C3CCN(C(=O)Nc4ccc(N5CCOCC5)cc4)CC3)ncnc2c1 [Compound 85, 4-{7-[2-(2-Oxo-pyrrolidin-1-yl)-ethoxy]-quinazolin-4-yl}-piperidine-1-carboxylic acid (4-morpholin-4-yl-phenyl)-amide]
4 | 15 | CC(=O)N1CCN(c2ccc3c(C4CCN(C(=O)Nc5ccc(N6CCOCC6)cc5)CC4)ncnc3c2)CC1 [Compound 141, 4-[7-(4-Acetyl-piperazin-1-yl)-quinazolin-4-yl]-piperidine-1-carboxylic acid (4-morpholin-4-yl-phenyl)-amide]
5 | 6.41 | CN1CCC(COc2ccc3c(C4CCN(C(=O)Nc5ccc(N6CCCC6)nc5)CC4)ncnc3c2)CC1 [Compound 99, 4-[7-(1-Methyl-piperidin-4-ylmethoxy)-quinazolin-4-yl]-piperidine-1-carboxylic acid (6-pyrrolidin-1-yl-pyridin-3-yl)-amide]
6 | 1.5 | CCN(CC)CCOc1ccc2c(C3CCN(C(=O)Nc4ccc(OC(C)C)cc4)CC3)ncnc2c1 [Compound 35, 4-[7-(2-Diethylamino-ethoxy)-quinazolin-4-yl)-piperidine-1-carboxylic acid (4-isopropoxy-phenyl)-amide]
7 | 9.4 | COc1cc2ncnc(C3CCN(C(=O)Nc4ccc(N(C)C)cc4)CC3)c2cc1OC [Compound 26, 4-(6,7-Dimethoxy-quinazolin-4-yl)-piperidine-1-carboxylic acid (4-dimethylamino-phenyl)-amide]

Further lines, the compound ahead of its results:

Row | SMILES | IC50 [µM]
8 | COc1cc2ncnc(C3CCN(C(=O)Nc4ccc(N5CCCC5=O)cc4)CC3)c2cc1OC [Compound 57, 4-(6,7-Dimethoxy-quinazolin-4-yl)-piperidine-1-carboxylic acid [4-(2-oxo-pyrrolidin-1-yl)-phenyl]-amide] | 24.9
9 | CC(=O)N1CCN(CCOc2ccc3c(C4CCN(C(=O)Nc5ccc(N6CCOCC6)cc5)CC4)ncnc3c2)CC1 [Compound 97, 4-{7-[2-(4-Acetyl-piperazin-1-yl)-ethoxy]-quinazolin-4-yl}-piperidine-1-carboxylic acid (4-morpholin-4-yl-phenyl)-amide] | > 20
10 | COc1cc2ncnc(C3CCN(C(=O)Nc4ccc5c(c4)CCO5)CC3)c2cc1OC [Compound 27, 4-(6,7-Dimethoxy-quinazolin-4-yl)-piperidine-1-carboxylic acid (2,3-dihydro-benzofuran-5-yl)-amide] | 9.4
11 | CN1CCN(CCCOc2ccc3c(C4CCN(C(=O)Nc5ccc(OC6CCCC6)nc5)CC4)ncnc3c2)CC1 [Compound 82, 4-{7-[3-(4-Methyl-piperazin-1-yl)-propoxy]-quinazolin-4-yl}-piperidine-1-carboxylic acid (6-cyclopentyloxy-pyridin-3-yl)-amide] | 0.4
12 | O=C(Nc1ccc(N2CCOCC2)cc1)N1CCC(c2ncnc3cc(N4CCC[C@@H]4CO)ccc23)CC1 [Compound 132, (R)-4-[7-(2-Hydroxymethyl-pyrrolidin-1-yl)-quinazolin-4-yl]-piperidine-1-carboxylic acid (4-morpholin-4-yl-phenyl)-amide] | > 42
13 | CN1CCN(CCCOc2ccc3c(C4CCN(C(=O)Nc5ccc(N6CCCC6)cc5)CC4)ncnc3c2)CC1 [Compound 158, 4-{7-[3-(4-Methyl-piperazin-1-yl)-propoxy]-quinazolin-4-yl}-piperidine-1-carboxylic acid (4-pyrrolidin-1-yl-phenyl)-amide] | 5
